Measured values as given in patent publication US20240262801A1, “COMPOUNDS HAVING 5-(2-FLUORO-6-HYDROXYPHENYL)-1,2,5-THIADIAZOLIDIN-3-ONE 1,1-DIOXIDE AS INHIBITORS OF PROTEIN KINASE PHOSPHATASE ENZYMES” (Ness Therapeutics, Inc., priority 2021, published 2024).
pIC50: −log10 of the molar value. Like-named read-outs stand apart in the source and are kept apart here.

Assays:
[1] = tested on: B16F10 mouse melanoma cells; test: Tumor cells B16F10 cellular growth IFNγ-induced inhibition assay (CellTiter-Glo); format: cell-based; details: for pIC50: B16-F10, 72 h, 3 days incubation; for inhibition at 100 µM: B16-F10, B16F10, 100 μM compound
How it was run: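 Cells were seeded at 500/well in DMEM + 10% FBS and allowed to adhere overnight at 37° C, 5% CO2. Compounds at 1× final were added via medium with or without IFNγ (5 ng/ml in the dilution medium). After 3 days, CellTiter-Glo luminescence gave % growth inhibition versus the DMSO/IFNγ control, from which IC50 was derived.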

GST-tagged PTPN2 protein = biological target: T1, GST-tagged PTPN2 protein (Homo sapiens, UniProt P17706); test: Primary assay of PTPN2 enzymatic activity inhibition (DiFMUP fluorescence); format: biochemical; details: DiFMUP substrate 2 μM, 60 min at RT
T1 construct: purchased ActiveMotif 31592
How it was run: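 Enzyme at 0.004 ng/μL final in 50 mM HEPES pH 7.2-7.4, 2 mM EDTA, 100 mM NaCl, BSA, 6 mM DTT; compounds preincubated 10 min at RT. DiFMUP added at 2 μM final, 60 min at RT, fluorescence read at ex 360/em 450 nm. IC50 calculated from % inhibition.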

[2] = B16F10, + IFNγ, read-out: IC50 + IFNγ
[3] = B16F10, no IFNγ, read-out: IC50 no IFNγ
[4] = + IFNγ, read-out: % Growth Inhibition at 100 μM + IFNγ
[5] = no IFNγ, read-out: % Growth Inhibition at 100 μM no IFNγ

T1 sequence (P17706 with tags, fused parts or gaps): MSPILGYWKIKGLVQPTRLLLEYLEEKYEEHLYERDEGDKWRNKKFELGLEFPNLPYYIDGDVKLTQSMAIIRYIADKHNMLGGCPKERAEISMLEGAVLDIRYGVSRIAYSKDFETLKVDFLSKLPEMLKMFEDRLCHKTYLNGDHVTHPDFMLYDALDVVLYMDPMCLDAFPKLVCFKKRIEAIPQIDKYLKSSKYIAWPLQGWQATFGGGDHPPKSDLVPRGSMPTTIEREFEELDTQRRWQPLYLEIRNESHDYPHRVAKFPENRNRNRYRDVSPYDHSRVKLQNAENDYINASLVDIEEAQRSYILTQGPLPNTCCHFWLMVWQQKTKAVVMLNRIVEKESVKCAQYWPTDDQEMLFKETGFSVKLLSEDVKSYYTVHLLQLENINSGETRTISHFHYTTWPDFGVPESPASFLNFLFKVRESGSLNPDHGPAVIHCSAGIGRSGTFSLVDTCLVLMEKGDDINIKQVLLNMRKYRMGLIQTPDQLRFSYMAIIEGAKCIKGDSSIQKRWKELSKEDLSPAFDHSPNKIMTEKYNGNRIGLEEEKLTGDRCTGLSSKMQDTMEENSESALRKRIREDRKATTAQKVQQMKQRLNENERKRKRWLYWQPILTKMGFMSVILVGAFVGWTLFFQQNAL

SMILES	pIC50 [1, 2]	pIC50 [1, 3]	inhibition at 100 µM [1, 4] [%]	inhibition at 100 µM [1, 5] [%]	pIC50 (GST-tagged PTPN2 protein)
Cc1ccc(S(=O)(=O)Nc2cc(O)c(N3CC(=O)NS3(=O)=O)c(F)c2)cc1 [Example 18, N-[4-(1,1-dioxido-4-oxo-1,2,5-thiadiazolidin-2-yl)-3-fluoro-5-hydroxyphenyl]-4-methylbenzenesulfonamide]	4.00 to 4.30	≤ 4.00	50 to 75	10 to 50	7.30 to 8.00
O=C1CN(c2c(O)cc(NS(=O)(=O)c3ccc(F)cc3)cc2F)S(=O)(=O)N1 [Example 20, N-[4-(1,1-dioxido-4-oxo-1,2,5-thiadiazolidin-2-yl)-3-fluoro-5-hydroxyphenyl]-4-fluorobenzenesulfonamide]	4.30 to 5.00	≤ 4.00	50 to 75	10 to 50	7.00 to 7.30
O=C1CN(c2c(O)cc(-c3cccc(F)c3)cc2F)S(=O)(=O)N1 [Example 2, 5-(3,3′-difluoro-5-hydroxybiphenyl-4-yl)-1,2,5-thiadiazolidin-3-one 1,1-dioxide]	4.00 to 4.30	≤ 4.00	50 to 75	10 to 50	6.30 to 7.00
O=C1CN(c2c(O)cc(NC(=O)NC3CCN(S(=O)(=O)c4ccccc4Cl)CC3)cc2F)S(=O)(=O)N1 [Example 51, 1-{1-[(2-chlorophenyl)sulfonyl]piperidin-4-yl}-3-[4-(1,1-dioxido-4-oxo-1,2,5-thiadiazolidin-2-yl)-3-fluoro-5-hydroxyphenyl]urea]	≤ 4.00	≤ 4.00	10 to 50	10 to 50	> 8.30
O=C1CN(c2c(O)cc(NC(=O)Nc3ccc(C(F)(F)F)cc3)cc2F)S(=O)(=O)N1 [Example 41, 1-[4-(1,1-dioxido-4-oxo-1,2,5-thiadiazolidin-2-yl)-3-fluoro-5-hydroxyphenyl]-3-[4-(trifluoromethyl)phenyl]urea]	4.00 to 4.30	≤ 4.00	50 to 75	10 to 50	8.00 to 8.30
CC(C)(C)c1ccc(C(=O)Nc2cc(O)c(N3CC(=O)NS3(=O)=O)c(F)c2)cc1 [Example 16, 4-tert-butyl-N-[4-(1,1-dioxido-4-oxo-1,2,5-thiadiazolidin-2-yl)-3-fluoro-5-hydroxyphenyl]benzamide]	≤ 4.00	≤ 4.00	10 to 50	10 to 50	6.30 to 7.00
CC(C)C[C@@H](CO)NC(=O)Nc1cc(O)c(N2CC(=O)NS2(=O)=O)c(F)c1 [Example 110, 1-[3-fluoro-5-hydroxy-4-(1,1,4-trioxo-1,2,5-thiadiazolidin-2-yl)phenyl]-3-[(1S)-1-(hydroxymethyl)-3-methyl-butyl]urea]	4.30 to 5.00	≤ 4.00	50 to 75	10 to 50	8.00 to 8.30
Cc1cccc(NC(=O)Nc2cc(O)c(N3CC(=O)NS3(=O)=O)c(F)c2)c1 [Example 42, 1-[4-(1,1-dioxido-4-oxo-1,2,5-thiadiazolidin-2-yl)-3-fluoro-5-hydroxyphenyl]-3-(3-methylphenyl)urea]	≤ 4.00	≤ 4.00	10 to 50	10 to 50	> 8.30
CCCCS(=O)(=O)Nc1cc(O)c(N2CC(=O)NS2(=O)=O)c(F)c1 [Example 28, N-[4-(1,1-dioxido-4-oxo-1,2,5-thiadiazolidin-2-yl)-3-fluoro-5-hydroxyphenyl]butane-1-sulfonamide]	4.00 to 4.30	≤ 4.00	50 to 75	10 to 50	6.30 to 7.00
COc1ccc(CNC(=O)Nc2cc(O)c(N3CC(=O)NS3(=O)=O)c(F)c2)cc1 [Example 63, 1-[4-(1,1-dioxido-4-oxo-1,2,5-thiadiazolidin-2-yl)-3-fluoro-5-hydroxyphenyl]-3-(4-methoxybenzyl)urea]	4.30 to 5.00	≤ 4.00	75 to 100	10 to 50	7.30 to 8.00
O=C1CN(c2c(O)cc(NC(=O)Nc3cccc(Cl)c3)cc2F)S(=O)(=O)N1 [Example 46, 1-(3-chlorophenyl)-3-[4-(1,1-dioxido-4-oxo-1,2,5-thiadiazolidin-2-yl)-3-fluoro-5-hydroxyphenyl]urea]	≤ 4.00	≤ 4.00	10 to 50	10 to 50	> 8.30
CC(C)CCN1CC(CNC(=O)Nc2cc(O)c(N3CC(=O)NS3(=O)=O)c(F)c2)C2(CCCCC2)C1 (centres unmarked) [Example 102, 1-[3-fluoro-5-hydroxy-4-(1,1,4-trioxo-1,2,5-thiadiazolidin-2-yl)phenyl]-3-[(2-isopentyl-2-azaspiro[4.5]decan-4-yl)methyl]urea]	≤ 4.00	≤ 4.00	10 to 50	10 to 50	8.00 to 8.30
O=C1CN(c2c(O)cc(-c3cc(F)cc(F)c3)cc2F)S(=O)(=O)N1 [Example 4, 5-(3,3′,5′-trifluoro-5-hydroxybiphenyl-4-yl)-1,2,5-thiadiazolidin-3-one 1,1-dioxide]	≤ 4.00	≤ 4.00	10 to 50	10 to 50	6.30 to 7.00
O=C1CN(c2c(O)cc(-c3cccc(NC4CCN(S(=O)(=O)Cc5ccccc5Cl)CC4)c3)cc2F)S(=O)(=O)N1 [Example 11, 5-[3′-({1-[(2-chlorobenzyl)sulfonyl]piperidin-4-yl}amino)-3-fluoro-5-hydroxybiphenyl-4-yl]-1,2,5-thiadiazolidin-3-one 1,1-dioxide]	4.00 to 4.30	≤ 4.00	50 to 75	10 to 50	6.30 to 7.00
O=C1CN(c2c(O)cc(NC(=O)Nc3ccccc3Cl)cc2F)S(=O)(=O)N1 [Example 48, 1-(2-chlorophenyl)-3-[4-(1,1-dioxido-4-oxo-1,2,5-thiadiazolidin-2-yl)-3-fluoro-5-hydroxyphenyl]urea]	≤ 4.00	≤ 4.00	10 to 50	10 to 50	8.00 to 8.30
COc1ccc(S(=O)(=O)Nc2cc(O)c(N3CC(=O)NS3(=O)=O)c(F)c2)cc1OC [Example 26, N-[4-(1,1-dioxido-4-oxo-1,2,5-thiadiazolidin-2-yl)-3-fluoro-5-hydroxyphenyl]-3,4-dimethoxybenzenesulfonamide]	4.30 to 5.00	≤ 4.00	50 to 75	10 to 50	7.30 to 8.00
